Patent US7473669B2, “Substituted 4,5-dihydro-1,2,4-triazin-6-ones, 1,2,4-triazin-6-ones, and their use as fungicides” (priority 2005, dated 2009)
Like-named read-outs stand apart in the source and are kept apart here.

Tests used:
Assay type in all cases: in vivo
[1] = tested on: Puccinia recondita tritici; assay: Leaf Rust of Wheat greenhouse one-day protectant test; conditions: 24 h, read-out: PUCCRT percent control rating
[2] = tested on: Erysiphe cichoracaerum; assay: Cucumber Powdery Mildew greenhouse one-day protectant test; conditions: 24 h, read-out: ERYSCI percent control rating
[3] = tested on: Phytophthora infestans; assay: whole plant or invertebrate; conditions: in Solanum lycopersicum, 24 h, read-out: PHYTIN percent control rating, tomato plants, one-day protectant test, 200 ppm application rate
[4] = tested on: Pyricularia oryzae; assay: whole plant or invertebrate; conditions: 24 h, read-out: PYRIOR percent control rating
[5] = tested on: Leptosphaeria nodorum; assay: Glume Blotch of Wheat greenhouse one-day protectant test; conditions: Parastagonospora nodorum, 24 h, read-out: LEPTNO percent control rating
[6] = tested on: Colletotricum lagenarium; assay: Cucumber Anthracnose greenhouse one-day protectant test; conditions: Cucumis sativus, 24 h, read-out: COLLLA percent control rating
[7] = wheat plants, one-day protectant test, 200 ppm application rate
[8] = cucumber plants, one-day protectant test, 200 ppm application rate

SMILES	pest or weed control at 200 ppm [1, 7] [%]	pest or weed control at 200 ppm [2, 8] [%]	pest or weed control at 200 ppm [3] [%]	pest or weed control at 200 ppm [4] [%]	pest or weed control at 200 ppm [5, 7] [%]	pest or weed control at 200 ppm [6, 8] [%]	pest or weed control at 200 ppm [1] [%]	pest or weed control at 200 ppm [2] [%]	pest or weed control at 200 ppm [5] [%]	pest or weed control at 200 ppm [6] [%]
O=c1cnc(-c2cccc(CC3=CCc4ccccc43)c2)nn1CC(F)(F)F [Compound 90]	50 to 79	0 to 49	0 to 49	80 to 100	50 to 79	0 to 49	–	–	–	–
O=C1CNC(c2cc(Cl)cc(Cl)c2)=NN1Cc1ccccn1 [Compound 6]	80 to 100	0 to 49	0 to 49	80 to 100	80 to 100	50 to 79	–	–	–	–
O=C1C(SC2CCCCC2)NC(c2cccc(-c3ccccc3OC(F)(F)F)c2)=NN1CC(F)(F)F (stereo not shown) [Compound 52]	80 to 100	0 to 49	0 to 49	80 to 100	80 to 100	0 to 49	–	–	–	–
O=c1cnc(-c2cccc(/C=C\c3ccccc3)c2)nn1CC(F)(F)F [Compound 89]	–	–	0 to 49	80 to 100	–	–	80 to 100	0 to 49	80 to 100	50 to 79
O=C1CNC(c2cccc(-c3ccc(Cl)s3)c2)=NN1CC(F)(F)F [Compound 29]	80 to 100	0 to 49	0 to 49	50 to 79	80 to 100	0 to 49	–	–	–	–
Cc1cc(C)cc(C2=NN(CC(F)(F)F)C(=O)C(OCc3ccccc3)N2)c1 (stereo not shown) [Compound 40]	80 to 100	0 to 49	0 to 49	80 to 100	80 to 100	80 to 100	–	–	–	–
Cc1cc(C)cc(C2=NN(Cc3c(F)c(F)c(F)c(F)c3F)C(=O)CN2)c1 [Compound 63]	0 to 49	0 to 49	0 to 49	50 to 79	50 to 79	0 to 49	–	–	–	–
O=C1C(SC2CCCCC2)NC(c2cc(Br)cc(Br)c2)=NN1CC(F)(F)F (stereo not shown) [Compound 44]	80 to 100	0 to 49	80 to 100	80 to 100	80 to 100	80 to 100	–	–	–	–
O=C1CNC(c2cc(Cl)cc(Cl)c2)=NN1CCO [Compound 7]	50 to 79	0 to 49	0 to 49	0 to 49	50 to 79	0 to 49	–	–	–	–
O=C1CNC(c2ccccc2)=NN1CCO [Compound 4]	0 to 49	0 to 49	0 to 49	0 to 49	0 to 49	0 to 49	–	–	–	–
O=c1cnc(-c2ccc(Oc3cccnc3)cc2)nn1CC(F)(F)F [Compound 78]	80 to 100	0 to 49	80 to 100	80 to 100	50 to 79	80 to 100	–	–	–	–
Cc1cc(C)cc(-c2ncc(=O)n(CCOc3ccccc3)n2)c1 [Compound 86]	80 to 100	0 to 49	0 to 49	80 to 100	80 to 100	80 to 100	–	–	–	–
O=C1C(SC2CCCCC2)NC(c2ccc(F)c(-c3ccccc3)c2)=NN1CC(F)(F)F (stereo not shown) [Compound 48]	80 to 100	0 to 49	–	80 to 100	80 to 100	–	–	–	–	–
